The results in this text go back to US20240343677A1, “L-ASPARTIC ACID N, N-DIACETIC ACID TETRASODIUM SALT AND PREPARATION METHOD THEREFOR” (HEFEI ALL-PLUS ENVIRONMENTAL TECNOLOGY CO., LTD., priority 2021, published 2024).

Where only a bound is given, the exact number is not on record here.

The procedure of data set [1]: FIG. 4 is a thermogravimetric analysis graph of the ASDA prepared in Example 1 of the present disclosure;
3. Thermal stability and application environment adaptability of the L-aspartic acid N,N-diacetic acid tetrasodium salt (ASDA) prepared by the preparation method provided in Example 1 were detected. […] The thermal stability of ASDA-Na4 powder was measured by thermogravimetric analysis (TGA) and differential scanning calorimetry (DSC).

The nature of data set [2]: Solubility in water of different pH values and in concentrated sodium hydroxide solution. The class given is physicochemical. The following applies: ASDA of Example 1. An excerpt:
It can also correspondingly reduce transportation and warehousing costs, and alleviate the problem of high transportation and warehousing costs.

Data set [3] is described as follows: Biodegradability of ASDA in sewage according to OECD 301B standard. The following applies: 28 days, third-party detection, ASDA of Example 1. How it is done:
FIG. 1 is a graph of biodegradability detection results of ASDA prepared in Example 1 of the present disclosure tested in a stable sewage environment;
1. […] The detection was carried out by a third-party detection mechanism.

A short description of data set [4]: Chelating ability for metal ions compared with other chelating agents. The class given is physicochemical. The note with it: same condition as other chelating agents (FIG. 5).
Data set [5] in a line: Efficiency of removing calcium carbonate water scales. The following applies: compared with other amino polymeric chelating agents (FIG. 6). The text has this: 5. The ASDA can also be used for preventing water scale and precipitation and removing water scale.

For `O=C(O)CN(CCN(CC(=O)O)CC(=O)O)CC(=O)O` [EDTA, ethylenediaminetetraacetic acid, reference compound], the “thermal stability (thermally more stable than ASDA)” value in data set [1] was greater than 150 °C.
As to `O=C(O)CN(CC(=O)O)CC(=O)O` [NTA, nitrilotriacetic acid, reference compound], the “thermal stability (thermally more stable than ASDA)” value in data set [1] is greater than 150 °C.
Regarding `O=C([O-])C[C@@H](C(=O)[O-])N(CC(=O)[O-])CC(=O)[O-].[Na+].[Na+].[Na+].[Na+]` [ASDA, L-aspartic acid N,N-diacetic acid tetrasodium salt], the “solubility under a strong alkali condition” value in data set [2] (concentrated sodium hydroxide solution (FIG. 3)) is recorded as “high solubility”. In addition, the “solubility in low pH” value in data set [2] (water, low pH (FIG. 2)) is listed as “high solubility”. This compound also returned a 28-day biodegradability in data set [3] of no less than 60%. For the same compound, the “comprehensive performance in chelating metal ions” value in data set [4] is given as “excellent”. Moreover, the “efficiency of removing CaCO3 scales” value in data set [5] is on record as “the best biodegradable chelate for removing CaCO3 scales”. The moisture lost entry in data set [1] (ASDA solid, all moisture lost at about 250° C., TGA) is listed as “about 4%”. In addition, in data set [1] (ASDA-Na4 powder, TGA/DSC), the “temperature above which rapid decomposition begins” value was “above 380 °C”.
